Experimental data as given in patent US20030220254A1, “Composition and method for preparation of an oral dual controlled release formulation of a protein and inhibitor” (TEXAS TECH UNIVERSITY SYSTEM, priority 2002, published 2003).

What was measured:
trypsin = target: T1, trypsin (Bos taurus, UniProt P00760); assay: Stability of sCT in the presence of trypsin and protease inhibitors; assay type: biochemical; design: half-life: dose or concentration left out as unconfirmed
T1 construct: gene PRSS1
T1 sequence (P00760 24-246): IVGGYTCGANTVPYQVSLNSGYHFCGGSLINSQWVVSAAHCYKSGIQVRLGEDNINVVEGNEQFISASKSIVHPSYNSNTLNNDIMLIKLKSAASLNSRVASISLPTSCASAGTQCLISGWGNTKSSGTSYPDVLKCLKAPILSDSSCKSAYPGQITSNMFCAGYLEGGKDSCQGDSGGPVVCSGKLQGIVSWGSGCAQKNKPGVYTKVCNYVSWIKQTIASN
Procedure: (§1) sCT solutions (50 μM) were incubated at 37° C. in 50 mM Tris buffer containing 0.1 mM calcium chloride (pH 8.0). Degradation profiles generated in the presence of 0.5 μM trypsin and 0.1 μM α-chymotrypsin served as controls. The concentrations were selected on the basis of a reported study (Schilling R. J. and Mitra A. K. 1991). DkOVM and TkOVM were evaluated at different enzyme-to-inhibitor ratios to evaluate their inhibition of sCT degradation. CkOVM and aprotinin were used at 1:1 enzyme-to-inhibitor ratio in order to compare the efficacy of various protease inhibitors used. sCT and enzyme solutions were incubated for 15 min at 37° C. before starting the experiments. Samples were taken after 0, 5, 15, 30 and 60 min and immediately diluted with cold 1% trifluoroacetic acid (TFA) to reduce the pH to 2.5. The samples were analysed at 4° C. by HPLC given below. Plots of sCT remaining against time were generated. 160 values (amount of sCT (%) remaining after 60 min) were used to compare the efficacy of the ovomucoids. Similar studies were performed with aprotinin. The study was also conducted by incubating 50 μM sCT solutions with 0.5 μM trypsin and 0.1 μM α-chymotrypsin added together and the efficacy of TkOVM was evaluated at various ratios.
(§2) sCT was analyzed by means of our validated HPLC method (Shah R B, et al., 2003). Briefly, a computer controlled Varian Chromatography workstation consisting of the following components was used: Two Dynamax SD-200 pumps, an AI-200A autosampler fitted with a 100 μl injection loop, a Dynamax UV-1 detector and Star 5.3 chromatography software. Room temperature was maintained for the column and chromatographic separations were carried out on a C-18 Vydac 218MS54 column (5 μm, 4.6×250 mm) with a pore size of 300 Å. 50 μl of samples were injected into the column which were analyzed by the reversed phase HPLC method. The mobile phase consisted of 0.05% v/v TFA-Water (A) and 0.05% v/v TFA-Acetonitrile (B). The gradient conditions were 20-35% B for 10 min, 35-37% B from 10th to 20th min and 37-20% B from 20th to 25th min at a flow rate of 1 ml/min. […] Concentrations of sCT were quantified from integrated peak areas and calculated by interpolation from an according standard curve.

α-chymotrypsin = α-chymotrypsin (Bos taurus, UniProt P00766); assay: Stability of sCT in the presence of α-chymotrypsin and protease inhibitors; assay type: biochemical; design: half-life: dose or concentration left out as unconfirmed; settings: no inhibitor
Procedure: as §1, §2

[1] = test system: trypsin and α-chymotrypsin; assay: Stability of sCT with trypsin and α-chymotrypsin added together, with TkOVM; assay type: biochemical; settings: pH 8, no inhibitor, read-out: Half-life (min) of hydrolysis of sCT
Procedure: as §1, with “Plots of sCT remaining against time were generated. 160 values (amount of sCT (%) remaining after 60 min) were used to compare the efficacy of the ovomucoids. Similar studies were performed with aprotinin.” left out
sCT was analyzed by means of our validated HPLC method (Shah R B, et al., 2003). […] 50 μl of samples were injected into the column which were analyzed by the reversed phase HPLC method. […] Concentrations of sCT were quantified from integrated peak areas and calculated by interpolation from an according standard curve.

Caco-2 cell homogenate = assay: Stability of sCT in Caco-2 cell homogenate; assay type: in vitro ADME, Human; settings: Caco-2 homogenate, sCT 50 μM
Procedure: Human colon adenocarcinoma (Caco-2) cells were cultured, in an atmosphere of 5% CO2 at 37° C. in T-75 tissue culture flasks using DMEM supplemented with 10% FBS, 100 U/ml penicillin, 100 μg/ml streptomycin, 1.25 ml human Transferrin. The medium was changed every other day until the flasks reached 90% confluence (3-4 days). Caco-2 cells of less than 20 passages were used. Caco-2 homogenate was prepared according to the method of Augustijns et al. with slight modification. Briefly, the Caco-2 monolayer was washed three times with ice-cold PBS (pH 7.4). The cells were scraped off with a tissue culture scraper on ice and homogenized in 1 ml ice-cold PBS using a mechanical homogenizer. The mixture was centrifuged at 12,000 rpm for 10 min at 4° C. The resultant supernatant was used as Caco-2 homogenate. The protein content was determined using BCA assay. Tryspin and chymotrypsin assay was done for the homogenate as described below.
(§3) The degradation of sCT was studied by incubating the sCT solution to a final concentration of 50 μM with 900 μl Caco-2 cell and goat intestinal homogenates. The samples were withdrawn at 0 and 60 min and were diluted immediately with cold TFA 1%. The samples containing intestinal homogenate were centrifuged at 5000 g for 10 min to remove precipitated proteins. The supernatant was injected into HPLC to determine the sCT content.

in vitro = in vitro ADME; settings: goat, real gastrointestinal fluid or homogenate, pH 7.4
Procedure: Goat intestinal homogenate was prepared using a reported method for preparation of intestinal homogenate with minor modifications (Yamamoto et al., 1990). Briefly, fresh goat intestinal tissues, obtained from a local slaughter house, were washed with phosphate buffered saline (PBS) pH 7.4 at 4° C. and stored at −80° C. Immediately before each experiment, specimens were thawed at room temperature and then were washed again with PBS at 4° C. 25 g of tissue was cut from the small intestinal region and was homogenized in 10 ml PBS at 4° C. by use of a mechanical homogenizer for 5 min. The homogenate was centrifuged at 5000 g in a refrigerated (4° C.) centrifuge for 10 min to remove cellular and nuclear debris. The resulting supernatant was assayed for protein content by BCA assay with bovine serum albumin as the standard. The supernatant was also assayed for trypsin and chymotrypsin content.
as §3

With CC(C)C[C@H](NC(=O)[C@H](CCCCN)NC(=O)CNC(=O)[C@H](CC(C)C)NC(=O)[C@@H](NC(=O)[C@@H]1CSSC[C@H](N)C(=O)N[C@@H](CO)C(=O)N[C@@H](CC(N)=O)C(=O)N[C@@H](CC(C)C)C(=O)N[C@@H](CO)C(=O)N[C@@H]([C@@H](C)O)C(=O)N1)C(C)C)C(=O)N[C@@H](CO)C(=O)N[C@@H](CCC(N)=O)C(=O)N[C@@H](CCC(=O)O)C(=O)N[C@@H](CC(C)C)C(=O)N[C@@H](Cc1c[nH]cn1)C(=O)N[C@@H](CCCCN)C(=O)N[C@@H](CC(C)C)C(=O)N[C@@H](CCC(N)=O)C(=O)N[C@H](C(=O)N[C@@H](Cc1ccc(O)cc1)C(=O)N1CCC[C@H]1C(=O)N[C@@H](CCCNC(=N)N)C(=O)N[C@H](C(=O)N[C@@H](CC(N)=O)C(=O)N[C@H](C(=O)NCC(=O)N[C@@H](CO)C(=O)NCC(=O)N[C@H](C(=O)N1CCC[C@H]1C(N)=O)[C@@H](C)O)[C@@H](C)O)[C@@H](C)O)[C@@H](C)O [sCT, salmon calcitonin] the “Amount (%) of sCT remaining at 60 min (I60)” value (“Amount (%) of sCT remaining” for short) (trypsin; control, sCT 50 μM without enzyme) was 103.76 ± 3.10%, the half-life (trypsin; pH 8, trypsin, no inhibitor, read-out: Half-life (min) of hydrolysis of sCT) was 1.51 min and the “Amount (%) of sCT remaining” value (trypsin; trypsin 0.5 μM, no inhibitor) was 0.00 ± 0.00%. For the same compound, the “Amount (%) of sCT remaining” value (α-chymotrypsin; chymotrypsin 0.1 μM) was 16.18 ± 0.48%, the half-life (α-chymotrypsin; pH 8, α-chymotrypsin, read-out: Half-life (min) of hydrolysis of sCT) was 22.4 min and the half-life at 50 μM [1] was 0.77 min. For the same compound, the “Amount (%) of sCT remaining” value (Caco-2 cell homogenate) was 81.46 ± 10.89% and the remaining at 1 h, 50 μM (in vitro) was 91.7 ± 17.6%.
